In patent US20060106026A1, “4-(4-methylpiperazin-1-ylmethyl)-n-[4-pyridin-3-yl)pyrimidin-2-ylamino)phenyl]-benzamide for treating anaplastic thyroid cancer” (priority 2002, published 2006):
pIC50: −log10 of the molar value. Like-named read-outs stand apart in the source and are kept apart here.

Key:
KTC-1 = details: read-out: IC50 values, mean (50% reduction in cell growth); KTC-1, 72 h of incubation, n=3
From the text: (§1) Human anaplastic thyroid carcinoma cell lines FRO and ARO were used with respectively, undetectable or mutant p53 in codon 273 (Fagin et al., J. Clin. Invest. 1993, 91:179-184). Human papillary carcinoma cell line NPA has p53 mutations in codons 223 and 226 (Fagin et al., J. Clin. Invest. 1993, 91:179-184), while TPC-1 and KTC-1 papillary thyroid carcinoma cell lines are wild type for p53 (Kurebayashi et al., J. Clin. Endocrinol. Metab. 2000, 85:2889-96). Stable transfection with a vector expressing wild type p53 was used to produce the 1F3 cell line from FRO cells (Zeki et al., Int. J. Cancer, 1998, 75:391-5). […] Primary human thyroid cell cultures were established as described previously (Kawabe et al., J. Clin. Endocrinol. Metab., 1989, 68:1174-83) and maintained in a 2:1 mixture of F12 Nutrient Mixture and DEM, supplemented with 3% fetal bovine serum and penicillin-streptomycin (all reagents from Invitrogen Life Technologies, Paisley, UK).
(§2) The kinetics of cell growth were examined using a cytometer as follows: cells were seeded at a density of 0.5 or 0.1×10^5 cells per well in 12-well culture plates. […] Both experiments were performed at least three times.

NPA = system: NPA
From the text: as §1, §2

primary thyrocytes (PT) = details: read-out: IC50 values, mean (50% reduction in cell growth), 72 h of incubation, n=3
From the text: as §1, §2

ARO = system: ARO
From the text: as §1, §2

TPC-1 = details: read-out: IC50 values, mean (50% reduction in cell growth); TPC-1, 72 h of incubation, n=3
From the text: as §1, §2

FRO = system: FRO
From the text: as §1, §2

[1] = read-out: IC50 (cytostatic effect)
[2] = read-out: IC50 values, mean (50% reduction in cell growth), 72 h of incubation, n=3

CS(=O)(=O)O.Cc1ccc(NC(=O)c2ccc(CN3CCN(C)CC3)cc2)cc1Nc1nccc(-c2cccnc2)n1 [SALT I, 4-[(4-methyl-1-piperazin-1-ylmethyl)-N-[4-methyl-3-[[4-(3-pyridinyl)-2-pyrimidinyl]amino]phenyl]benzamide methanesulfonate]
pIC50 (KTC-1): 4.65 | pIC50 (NPA; read-out: IC50, as stated in the discussion, NPA cells): 4.80 | pIC50 (NPA; read-out: IC50 values, mean (50% reduction in cell growth), NPA, 72 h of incubation, n=3): 4.81 | pIC50 (primary thyrocytes (PT)): 4.61 | pIC50 (ARO; [1]): 5.23 | pIC50 (ARO; [2]): 5.09 | pIC50 (TPC-1): 4.53 | pIC50 (FRO; [1]): 5.11 | pIC50 (FRO; [2]): 5.19
